Experimental data published in patent publication US4073938A, “19,20-Bis-nor-prostenoic acids as hypolipemic compounds” (Istituto Biochimico Italiano di Loredana Lorenzini S.a.s., priority 1974, dated 1978).
Counter-ions that a name gives are not always drawn.

Test: Triglycerides and cholesterol in rats on Nath diet, 25 and 50 mg/kg endoperitoneal
Format: in vivo, male Sprague-Dawley rats
Settings: 1 week
Protocol: Treatment with 25 and 50 mg/kg/die endoperitoneal for 1 week on male
Sprague-Dawley rats of 150 gr.

Question: For `CCCCCCC1CCC(O)C1CCCCCCC(=O)O` (stereo not shown) [Compound C83, 9-hydroxy-19,20-bis-nor-prostanoic acid sodium salt], which cholesterol (25 mg/kg/die endoperitoneal, controls 64.4 ± 2.8, Nath diet 180.0 ± 15.8, p<0.01 vs Nath diet) is on record?
Answer: 108.3 ± 13.9

Question: What about the triglycerides (25 mg/kg/die endoperitoneal, controls 91.1 ± 13.5, Nath diet 135.2 ± 22.8) of the same molecule?
Answer: 81.5 ± 13.3

Question: And the triglycerides (50 mg/kg/die endoperitoneal, Nath diet 135.2 ± 22.8, p<0.01 vs Nath diet)?
Answer: 49.1 ± 6.1

Question: And the cholesterol (50 mg/kg/die endoperitoneal, Nath diet 180.0 ± 15.8, p<0.001 vs Nath diet)?
Answer: 101.8 ± 4.4
